Measured values from patent US20230012172A1, “COMPOSITIONS AND METHODS FOR TREATMENT OF PLATINUM-BASED CHEMOTHERAPEUTIC RESISTANT TUMORS” (The George Washington University, priority 2020, published 2023).

Key:
SKOV3 CR cells = test: Cell viability assay (SRB) in SKOV3 CR cells; format: cell-based; conditions: SKOV3 CR cells
Procedure: Cell culture and resistance cell line establishment. IGROV1 cells, U2OS (HTB-96; ATCC), HEK293T (CRL-11268; ATCC) and SKOV3 cells (HTB-77; ATCC) were cultured at 37° C. in DMEM with 10% Fetal Bovine Serum (FBS). PEO1 (10032308; Sigma-Aldrich), PEO4 (10032309; Sigma-Aldrich), PEO14 (10032311; […] Sigma-Aldrich) were cultured at 37° C. in RPMI-1640 with 10% FBS. OV90 (CRL-11732; […] All the cells were cultured at in a humidified incubator with 5% CO2 atmosphere. Cisplatin resistant cell lines, including SKOV3 CR, IGROV1 CR and OV90 CR, were generated using an approach similar to that reported in Zhou et al., (2018) Oncogene 37, 3981-3997, the disclosure of which is incorporated herein in its entirety. Cell viability assay. Cells were seeded at 3,000 cells/well in 96-well plates were treated with drugs, followed by incubation for 48 hours, after which cell viability was detected using Sulforhodamine B (SRB) assay (64). Absorbance at 510 nm was detected using a SpectraMax Reader (Molecular Devices) and analyzed with SoftMax Analysis Software (Molecular Devices). Combinational index (CI) values were calculated using CompuSyn software.

IGROV1 CR cells [1] = test: IGROV1 CR xenograft in nude mice; format: in vivo; conditions: IGROV1 CR xenograft tumors
Procedure: To further evaluate the therapeutic potential of UA in combination with cisplatin in vivo, IGROV1 CR cells were subcutaneously implanted into nude mice to form platinum drug resistant ovarian tumors. The mice with these tumors were then treated with UA, cisplatin, or combination of both via intraperitoneal injection.
Animal experiments. Xenograft experiments were performed in 6-week female BALB/c athymic nude mice (Jackson Laboratory) by subcutaneously injecting 5×10^6 IGROV1 CR cells within 50% Matrigel gelatinous protein mixture (Corning). Mice were randomized to receive treatment after reached a minimum tumor volume of 150 mm^3. 4 groups of mice (5 mice per group) were treated intraperitoneally with vehicle, cisplatin (8 mg/kg/2day), UA (10 mg/kg/2 days) and combination of UA and cisplatin (10 mg/kg/2 day of UA +8 mg/kg/2 day of cisplatin) for 2 weeks. A minimum of 6 tumors per group were assessed. The tumor volume was calculated according to the formula: length×(width^2)/2.
Immunohistochemistry. Immunohistochemical (IHC) staining and scoring were performed similar to that previously described n Zhou et al., (2018) Oncogene 37, 3981-3997, the disclosure of which is incorporated herein in its entirety. The quantification of immunohistochemical staining was scored blindly at least by two independent observers.

IGROV1 CR cells [2] = test: Cell viability assay (SRB) in IGROV1 CR cells; format: cell-based, human; conditions: 150 nM UA, IGROV1 CR cells
Procedure: Cell culture and resistance cell line establishment. IGROV1 cells, U2OS (HTB-96; ATCC), HEK293T (CRL-11268; ATCC) and SKOV3 cells (HTB-77; ATCC) were cultured at 37° C. in DMEM with 10% Fetal Bovine Serum (FBS). PEO1 (10032308; Sigma-Aldrich), PEO4 (10032309; Sigma-Aldrich), PEO14 (10032311; Sigma-Aldrich) and PE023 cells (10032313; Sigma-Aldrich) were cultured at 37° C. in RPMI-1640 with 10% FBS. OV90 (CRL-11732; ATCC) was cultured in medium containing 1:1 MCDB 105 (Sigma) and M199 (Sigma) supplemented with 10% FBS at 37 ° C. All the cells were cultured at in a humidified incubator with 5% CO2 atmosphere. Cisplatin resistant cell lines, including SKOV3 CR, IGROV1 CR and OV90 CR, were generated using an approach similar to that reported in Zhou et al., (2018) Oncogene 37, 3981-3997, the disclosure of which is incorporated herein in its entirety.
Cell viability assay. Cells were seeded at 3,000 cells/well in 96-well plates were treated with drugs, followed by incubation for 48 hours, after which cell viability was detected using Sulforhodamine B (SRB) assay (64). Absorbance at 510 nm was detected using a SpectraMax Reader (Molecular Devices) and analyzed with SoftMax Analysis Software (Molecular Devices). Combinational index (CI) values were calculated using CompuSyn software.

SENP1 = target: T1, SENP1 (Homo sapiens, UniProt Q9P0U3); test: Cell free thermal shift assay with recombinant SENP1; format: binding; set-up: GST (N); made in house; host or cells: E. coli implied (pGEX-4T1 vector; BL21 (DE3) is stated only for pET28a-JAK2)
T1 sequence (Q9P0U3 1-644): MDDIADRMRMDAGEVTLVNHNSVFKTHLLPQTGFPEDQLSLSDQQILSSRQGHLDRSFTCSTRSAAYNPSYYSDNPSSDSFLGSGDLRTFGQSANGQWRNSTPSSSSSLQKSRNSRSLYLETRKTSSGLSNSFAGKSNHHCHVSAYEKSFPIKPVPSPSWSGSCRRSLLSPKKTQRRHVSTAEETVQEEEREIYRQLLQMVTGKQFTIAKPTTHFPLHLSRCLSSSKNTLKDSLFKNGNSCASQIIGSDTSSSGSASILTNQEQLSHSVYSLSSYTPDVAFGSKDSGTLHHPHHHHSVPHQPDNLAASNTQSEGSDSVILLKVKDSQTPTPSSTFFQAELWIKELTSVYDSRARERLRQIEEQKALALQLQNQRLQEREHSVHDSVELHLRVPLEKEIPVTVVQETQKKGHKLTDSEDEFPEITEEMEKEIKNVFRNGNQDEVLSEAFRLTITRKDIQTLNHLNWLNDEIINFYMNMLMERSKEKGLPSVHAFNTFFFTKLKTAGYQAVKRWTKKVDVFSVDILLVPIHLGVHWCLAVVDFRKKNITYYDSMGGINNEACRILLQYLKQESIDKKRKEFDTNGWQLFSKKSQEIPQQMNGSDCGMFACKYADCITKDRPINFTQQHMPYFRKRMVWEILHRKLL

| SMILES | re-sensitization to cisplatin (SKOV3 CR cells) | synergistic effects with cisplatin (combination index) (SKOV3 CR cells) | expression of pSTAT3 in tumor samples (IHC) (IGROV1 CR cells [1]) | CI value with cisplatin, cell survival (IGROV1 CR cells [2]) | thermal stabilization of recombinant SENP1 proteins (SENP1) |
| --- | --- | --- | --- | --- | --- |
| CC1(C)CC[C@]2(C(=O)O)CC[C@]3(C)C(=CC[C@@H]4[C@@]5(C)CC[C@H](O[C@@H]6O[C@H](C(=O)O)[C@@H](O)[C@H](O[C@@H]7OC[C@@H](O)[C@H](O)[C@H]7O)[C@H]6O)C(C)(C)[C@@H]5CC[C@]43C)[C@@H]2C1 [Mc, Momordin Ic] | re-sensitized | synergy |  |  |  |
| C[C@H]1[C@H](C)CC[C@]2(C(=O)O)CC[C@]3(C)C(=CC[C@@H]4[C@@]5(C)CC[C@H](O)C(C)(C)[C@@H]5CC[C@]43C)[C@H]12 [UA, ursolic acid] |  |  | suppressed | < 1 | stabilized |
